Source: ChEMBL document CHEMBL1201862, “PubChem BioAssay data set” (2004)
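A five-concentration, 48-hour dose response in 96-well plates underlies each endpoint, interpolated linearly between surrounding concentrations. GI50: concentration for 50% inhibition of growth.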 Activity calls are given as the source filed them. No stated cut-off is given here; in the data, active = GI50 up to about 1.1 µM and inactive = higher.

How the values were obtained:
Assay in all cases: NCI anticancer screen, dose series, 48 h
HCC 2998 = test system: HCC 2998
UO-31 = test system: UO-31
TK-10 = test system: TK-10
OVCAR-3 = test system: OVCAR-3
NCI-H23 = test system: NCI-H23
OVCAR-8 = test system: OVCAR-8
BT-549 = test system: BT-549
SK-MEL-28 = test system: SK-MEL-28
SR = test system: SR
MOLT-4 = test system: MOLT-4
A498 = test system: A498
IGROV-1 = test system: IGROV-1
KM12 = test system: KM12
DU-145 = test system: DU-145
HT-29 = test system: HT-29
SF-295 = test system: SF-295
SF-268 = test system: SF-268
U-251 = test system: U-251
SK-MEL-2 = test system: SK-MEL-2
T47D = test system: T47D

N#Cc1c(Cl)c(C=O)c(=O)n2c1[nH]c1ccccc12
GI50 (HCC 2998): > 100 µM (inactive)
GI50 (UO-31): 46.2 µM (inactive)
GI50 (TK-10): > 100 µM (inactive)
GI50 (OVCAR-3): 20.1 µM (inactive)
GI50 (NCI-H23): 42.1 µM (inactive)
GI50 (OVCAR-8): 42.1 µM (inactive)
GI50 (BT-549): 36.1 µM (inactive)
GI50 (SK-MEL-28): 63.1 µM (inactive)
GI50 (SR): 10 µM (inactive)
GI50 (MOLT-4): 29 µM (inactive)
GI50 (A498): 31.7 µM (inactive)
GI50 (IGROV-1): > 100 µM (inactive)
GI50 (KM12): 47.3 µM (inactive)
GI50 (DU-145): 50.4 µM (inactive)
GI50 (HT-29): 36 µM (inactive)
GI50 (SF-295): 35.9 µM (inactive)
GI50 (SF-268): 38.6 µM (inactive)
GI50 (U-251): 67 µM (inactive)

Nc1nc2cc(CNc3ccc(C(=O)NC(CCC(=O)O)C(=O)O)cc3)ccc2nc1-c1ccccc1 (stereo not given)
GI50 (HCC 2998): > 10 µM (inactive)
GI50 (UO-31): > 10 µM (inactive)
GI50 (TK-10): > 10 µM (inactive)
GI50 (OVCAR-3): > 10 µM (inactive)
GI50 (NCI-H23): > 10 µM (inactive)
GI50 (OVCAR-8): > 10 µM (inactive)
GI50 (BT-549): > 10 µM (inactive)
GI50 (SK-MEL-28): > 10 µM (inactive)
GI50 (MOLT-4): > 10 µM (inactive)
GI50 (A498): > 10 µM (inactive)
GI50 (SK-MEL-2): > 10 µM (inactive)
GI50 (IGROV-1): > 10 µM (inactive)
GI50 (T47D): > 10 µM (inactive)
GI50 (KM12): > 10 µM (inactive)
GI50 (DU-145): > 10 µM (inactive)
GI50 (HT-29): > 10 µM (inactive)
GI50 (SF-295): > 10 µM (inactive)
GI50 (SF-268): > 10 µM (inactive)
GI50 (U-251): > 10 µM (inactive)

CC(=O)NS(=O)(=O)c1ccc(NCc2cccc3c(=O)c4ccc(Cl)cc4oc23)cc1
GI50 (HCC 2998): 38.5 µM (inactive)
GI50 (UO-31): 25.4 µM (inactive)
GI50 (TK-10): > 63.4 µM (inactive)
GI50 (OVCAR-3): 44.6 µM (inactive)
GI50 (NCI-H23): 33 µM (inactive)
GI50 (OVCAR-8): 16.9 µM (inactive)
GI50 (BT-549): > 54.2 µM (inactive)
GI50 (SK-MEL-28): 73.8 µM (inactive)
GI50 (MOLT-4): 11.5 µM (inactive)
GI50 (A498): 41.9 µM (inactive)
GI50 (SK-MEL-2): 46 µM (inactive)
GI50 (IGROV-1): 24.8 µM (inactive)
GI50 (T47D): > 92.3 µM (inactive)
GI50 (KM12): 20.5 µM (inactive)
GI50 (DU-145): 61 µM (inactive)
GI50 (HT-29): 31.8 µM (inactive)
GI50 (SF-295): 51.4 µM (inactive)
GI50 (SF-268): 30.8 µM (inactive)
GI50 (U-251): 31.6 µM (inactive)

Cc1ccc([S+]([O-])CC(CF)OCn2cc(C)c(=O)[nH]c2=O)cc1 (stereo not given)
GI50 (HCC 2998): > 100 µM (inactive)
GI50 (UO-31): > 100 µM (inactive)
GI50 (TK-10): > 100 µM (inactive)
GI50 (OVCAR-3): > 100 µM (inactive)
GI50 (NCI-H23): > 100 µM (inactive)
GI50 (OVCAR-8): > 100 µM (inactive)
GI50 (BT-549): 90.2 µM (inactive)
GI50 (SK-MEL-28): > 100 µM (inactive)
GI50 (SR): > 100 µM (inactive)
GI50 (MOLT-4): > 100 µM (inactive)
GI50 (SK-MEL-2): > 100 µM (inactive)
GI50 (IGROV-1): > 100 µM (inactive)
GI50 (T47D): > 100 µM (inactive)
GI50 (KM12): > 100 µM (inactive)
GI50 (DU-145): > 100 µM (inactive)
GI50 (SF-295): > 100 µM (inactive)
GI50 (SF-268): > 100 µM (inactive)
GI50 (U-251): > 100 µM (inactive)

O=c1[nH]nc(Cc2ccccc2)n1/N=C/c1ccc([N+](=O)[O-])o1
GI50 (HCC 2998): 3.99 µM (inactive)
GI50 (UO-31): 4.47 µM (inactive)
GI50 (TK-10): 4.36 µM (inactive)
GI50 (OVCAR-3): 0.292 µM (active)
GI50 (NCI-H23): 3.57 µM (inactive)
GI50 (OVCAR-8): 2.16 µM (inactive)
GI50 (BT-549): 0.308 µM (active)
GI50 (SK-MEL-28): 2.2 µM (inactive)
GI50 (MOLT-4): 2.42 µM (inactive)
GI50 (A498): 7.41 µM (inactive)
GI50 (SK-MEL-2): 3.56 µM (inactive)
GI50 (IGROV-1): 2.67 µM (inactive)
GI50 (T47D): 6.7 µM (inactive)
GI50 (KM12): 2.15 µM (inactive)
GI50 (DU-145): 3.77 µM (inactive)
GI50 (HT-29): 1.68 µM (inactive)
GI50 (SF-295): 7.62 µM (inactive)
GI50 (SF-268): 2.59 µM (inactive)
GI50 (U-251): 2.87 µM (inactive)

C=CCCCC1CCCNC1=O (stereo not given)
GI50 (HCC 2998): > 100 µM (inactive)
GI50 (UO-31): > 100 µM (inactive)
GI50 (TK-10): > 100 µM (inactive)
GI50 (OVCAR-3): > 100 µM (inactive)
GI50 (NCI-H23): > 100 µM (inactive)
GI50 (OVCAR-8): > 100 µM (inactive)
GI50 (BT-549): > 100 µM (inactive)
GI50 (SK-MEL-28): > 100 µM (inactive)
GI50 (MOLT-4): > 100 µM (inactive)
GI50 (A498): > 100 µM (inactive)
GI50 (SK-MEL-2): > 100 µM (inactive)
GI50 (IGROV-1): > 100 µM (inactive)
GI50 (T47D): > 100 µM (inactive)
GI50 (KM12): > 100 µM (inactive)
GI50 (DU-145): > 100 µM (inactive)
GI50 (HT-29): > 100 µM (inactive)
GI50 (SF-295): > 100 µM (inactive)
GI50 (SF-268): > 100 µM (inactive)
GI50 (U-251): > 100 µM (inactive)

CCN(CC)CCC(=O)c1ccc(Oc2ccccc2)cc1
GI50 (HCC 2998): 17.6 µM (inactive)
GI50 (TK-10): 14.2 µM (inactive)
GI50 (OVCAR-3): 19.7 µM (inactive)
GI50 (NCI-H23): 25.1 µM (inactive)
GI50 (OVCAR-8): 39.7 µM (inactive)
GI50 (BT-549): 18.7 µM (inactive)
GI50 (SK-MEL-28): 17.5 µM (inactive)
GI50 (SR): 39.4 µM (inactive)
GI50 (MOLT-4): 20 µM (inactive)
GI50 (SK-MEL-2): 97.7 µM (inactive)
GI50 (IGROV-1): 17.1 µM (inactive)
GI50 (T47D): 19 µM (inactive)
GI50 (KM12): 13.1 µM (inactive)
GI50 (DU-145): 27.7 µM (inactive)
GI50 (HT-29): 19.1 µM (inactive)
GI50 (SF-295): 55.3 µM (inactive)
GI50 (SF-268): 20.8 µM (inactive)
GI50 (U-251): 17.9 µM (inactive)
